In EP2664616A1, “Hydantoin and thiohydantoin derivatives as antiviral drugs” (priority 2012, dated 2013) one finds EC50 data, which are given here for 41 compounds.

The first assay has as its system HCV replicon Luc Neo ET. The assay is described as follows: HCV replication inhibition assay (replicon assay, luciferase reporter). Format: cell-based. The settings on record: Hepatitis C virus; Huh-7 cell lines containing HCV replicon Luc Neo ET; 72 hours with compound; 1 % DMSO; firefly luciferase reporter; concentration that produces 50 % of replication inhibition; read-out: EC50 Replicon LucneoET. As to the method: The compounds according to the present invention were tested for their ability to inhibit HCV replication as follows:
Huh-7 cell lines containing HCV replicon Luc Neo ET (Reblikon) were maintained in DMEM supplemented with 10% SVF, 2 mM glutamine, and 1 X NEAA, 100 U / ml penicillin, and 100 µg / ml streptomycine. Cells were maintained in medium supplemented with 0.5 mg/ml G418, at 37°C and 5% CO2 in a humidified atmosphere. Cells were dissociated at sub confluence with trypsin EDTA 1X.
Replicon Luc Neo ET is bicistronic expression constructs (Lohmann et al, 1999, Science 285, 110-113). In brief, the structural genes of the HCV genome were replaced by heterologous sequences; the gene encoding the neomycin phosphotransferase (NPT) and the internal ribosome entry site (IRES) of the encephalomyocarditis virus (EMCV). The bicistronic construct is therefore composed of the following elements: HCV-IRES nucleotides 1-389 for Luc Neo ET, the NPT gene, the EMCV-IRES directing translation of downstream HCV sequences from NS2 or NS3 up to the authentic 3' end of the genome. HCV Polyprotein of Luc Neo ET replicon harbours the cell culture adaptive mutations E1202G, T1280I, K1846T. G418-resistance is only possible with cells containing high amounts of replicon.
Cells were dissociated the day before addition of compounds and seeded in 96 well-plates at a final concentration of 27 777.77 cells.ml^-1.cm^-2 in 90µl final volume of culture medium per well and were maintained at 37°C and 5% CO2 in a humidified atmosphere for 24 hours. 10 µl of compounds to be tested were added 24 hours after seeding. Final concentration of DMSO was 1 %. Cells were incubated in the presence of compounds for 72 hours after which expression of firefly luciferase reporter gene was quantified. Briefly, culture medium was removed and cells were lysed by addition of 100 µl of lysis buffer containing 125 mM Tris Phosphate ph 7.8, 10 mM EDTA, 5 mM DTT, 50 % glycerol and 5 % Triton. Plates were vortexed 10 min at 1300 rpm. 100µl of luciferin solution 1X were added to each well. Luciferin solution contained 40 mM Tris Phosphate ph 7.8, 0.2 mM EDTA, 67 mM DTT, 2.14 mM MgCl2, 5.4 mM MgSO4, 4.7 x 10^-4 M luciferin, 5.3 x 10^-4 M ATP and 2.7 x 10^-4 M Acetyl co enzyme A. Luminescence was immediately measured with Berthold Microlumat Plus LB 96V luminometer with an integration of 1 sec. Inhibition was calculated using the formula: % inhibition = 1-[(RLUsample-RLUbackground)/(RLUsignal-RLUbackground)].
The Table 1 below illustrates data on the biological activity of compounds of the present invention. Results are expressed as EC50 which is the concentration that produces 50 % of replication inhibition. Table 1. HCV replication inhibition assay
What is called EC50 is the concentration needed to bring the measured effect to its halfway point. For `Cc1ccc(NC(=O)CC2C(=O)N(c3ccccc3)C(=S)N2CCc2ccc(Cl)cc2)cc1` (centres unmarked) [Example 37, 2-{3-[2-(4-chlorophenyl)ethyl]-5-oxo-1-phenyl-2-sulfanylideneimidazolidin-4-yl}-N-(4-methylphenyl)acetamide], the EC50 was less than 5 µM. On the same count and under the same terms, under `O=C(CC1C(=O)N(c2ccccc2)C(=S)N1CCc1ccc(Cl)cc1)Nc1ccc(Cl)c(Cl)c1` (centres unmarked) [Example 38, 2-{3-[2-(4-chlorophenyl)ethyl]-5-oxo-1-phenyl-2-sulfanylideneimidazolidin-4-yl}-N-(3,4-dichlorophenyl)acetamide] stands less than 5 µM.

For the compound `NC(=O)c1ccc(NC(=O)CC2C(=O)N(c3ccccc3)C(=S)N2CCc2ccc(Cl)cc2)cc1` (centres unmarked) [Example 40, 4-(2-{3-[2-(4-chlorophenyl)ethyl)-5-oxo-1-phenyl-2-sulfanylideneimidazolidin-4-yl}acetamido)benzamide], the EC50 was less than 5 µM. As for `O=C(CC1C(=O)N(c2ccc(F)cc2)C(=S)N1CCc1ccc(Cl)cc1)Nc1ccc(N2CCOCC2)cc1` (centres unmarked) [Example 41, 2-{3-[2-(4-chlorophenyl)ethyl]-1-(4-fluorophenyl)-5-oxo-2-sulfanylideneimidazolidin-4-yl}-N-[4-(morpholin-4-yl)phenyl]acetamide], the EC50 was less than 0.5 µM. Still for that read-out and setting: under `COc1ccc(CCN2C(=O)N(c3ccc(F)cc3)C(=O)C2CC(=O)Nc2ccc(N(C)C)cc2)cc1` (centres unmarked) [Example 42, N-[4-(dimethylamino)phenyl]-2-[1-(4-fluorophenyl)-3-[2-(4-methoxyphenyl)ethyl]-2,5-dioxoimidazolidin-4-yl]acetamide] stands less than 5 µM; under `COCCN(C)c1ccc(NC(=O)CC2C(=O)N(c3ccc(F)cc3)C(=O)N2CCc2ccc(OC)cc2)cc1` (centres unmarked) [Example 43, 2-[1-(4-fluorophenyl)-3-[2-(4-methoxyphenyl)ethyl]-2,5-dioxoimidazolidin-4-yl]-N-{4-[(2-methoxyethyl)(methyl)amino]phenyl}acetamide], less than 5 µM; under `COc1ccc(CCN2C(=O)N(c3ccc(F)cc3)C(=O)C2CC(=O)Nc2ccc(N(C)C)c(C)c2)cc1` (centres unmarked) [Example 44, N-[4-(dimethylamino)-3-methylphenyl]-2-[1-(4-fluorophenyl)-3-[2-(4-methoxyphenyl)ethyl]-2,5-dioxoimidazolidin-4-yl]acetamide], less than 30 µM.

For `CN(C)c1ccc(NC(=O)CC2C(=O)N(c3ccc(F)cc3)C(=O)N2CCc2cccs2)cc1` (centres unmarked) [Example 45, N-[4-(dimethylamino)phenyl]-2-[1-(4-fluorophenyl)-2,5-dioxo-3-[2-(thiophen-2-yl)ethyl]imidazolidin-4-yl]acetamide], the EC50 is less than 5 µM.

The assay is the same for the next values; noted with them: Huh-7 cell lines containing HCV replicon Luc Neo ET; 72 hours with compound; 1 % DMSO; firefly luciferase reporter; concentration that produces 50 % of replication inhibition; read-out: EC50 Replicon LucneoET.
For “2-{3-[2-(4-chlorophenyl)ethyl]-1-(4-fluorophenyl)-4-hydroxy-5-oxo-2-sulfanylideneimidazolidin-4-yl}-N-[4-(dimethylamino)phenyl]acetamide [Example 65]”, the 50% effective concentration (EC50) was less than 0.5 µM. As to “2-{3-[2-(4-chlorophenyl)ethyl]-1-(4-fluorophenyl)-5-oxo-2-sulfanylideneimidazolidin-4-yl}-N-(5-methoxypyridin-2-yl)acetamide [Example 67]”, the EC50 is less than 5 µM. As to “2-{3-[2-(4-chlorophenyl)ethyl]-4-hydroxy-5-oxo-1-phenyl-2-sulfanylideneimidazolidin-4-yl}-N-[4-(dimethylamino)phenyl]acetamide [Example 63]”, the EC50 was less than 0.5 µM. Regarding “2-{3-[2-(4-chlorophenyl)ethyl]-5-oxo-1-phenyl-2-sulfanylideneimidazolidin-4-yl}-N-(pyridin-3-ylmethyl)acetamide [Example 56]”, the EC50 was less than 5 µM.

Consider `CCCOc1ccc(NC(=O)CC2C(=O)N(c3ccccc3)C(=S)N2CCc2ccccc2)cc1` (centres unmarked) [Example 1], for which the EC50 is less than 0.5 µM. Consider `CCCOc1ccc(NC(=O)CC2C(=O)N(c3ccccc3)C(=S)N2CCc2ccc(Cl)cc2)cc1` (centres unmarked) [Example 2], for which the EC50 was less than 0.5 µM. For the compound `COc1ccc(CCN2C(=S)N(c3ccccc3)C(=O)C2CC(=O)Nc2ccc(OC)cc2)cc1` (centres unmarked) [Example 3], the EC50 was less than 0.5 µM.

For the compound `COc1ccc(NC(=O)CC2C(=O)N(c3ccccc3)C(=S)N2CCc2ccc(OC)c(OC)c2)cc1` (centres unmarked) [Example 4], the EC50 was less than 5 µM.

As to `COc1ccc(NC(=O)CC2C(=O)N(c3ccccc3)C(=S)N2CCc2ccc(Cl)cc2)cc1` (centres unmarked) [Example 5], the EC50 is less than 0.5 µM. `COc1ccc(CCN2C(=S)N(c3ccc(F)cc3)C(=O)C2CC(=O)Nc2ccc(OC)cc2)cc1` (centres unmarked) [Example 6]: the EC50 is less than 0.5 µM. `CCOc1ccc(NC(=O)CC2C(=O)N(c3ccccc3)C(=S)N2CCc2ccccc2F)cc1` (centres unmarked) [Example 7]: the EC50 was less than 0.5 µM. As to `O=C(CC1C(=O)N(c2ccc(F)cc2)C(=S)N1CCc1ccc(Cl)cc1)Nc1ccccc1` (centres unmarked) [Example 8], the EC50 is less than 0.5 µM.

Take `COc1ccc(NC(=O)CC2C(=O)N(c3ccc(F)cc3)C(=S)N2CCc2ccc(Cl)cc2)cc1` (centres unmarked) [Example 9]: the EC50 is less than 0.5 µM. For the compound `CCCOc1ccc(NC(=O)CC2C(=O)N(c3ccccc3)C(=S)N2CCCN2CCN(Cc3ccccc3)CC2)cc1` (centres unmarked) [Example 10], the EC50 was less than 5 µM. On to `O=C(CC1C(=O)N(c2ccccc2)C(=S)N1CCc1ccc(Cl)cc1)Nc1ccccc1` (centres unmarked) [Example 11], for which the EC50 was less than 5 µM. The same measure, in the same setting: under `COc1ccc(NC(=O)CC2C(=O)N(c3ccccc3)C(=O)N2CCC2=CCCCC2)cc1` (centres unmarked) [Example 12] stands less than 0.5 µM; under `COc1ccc(NC(=O)CC2C(=O)N(c3ccc(F)cc3)C(=S)N2CCCN2CCN(Cc3ccccc3)CC2)cc1` (centres unmarked) [Example 13], less than 0.5 µM; under `COc1ccc(NC(=O)CC2C(=O)N(c3ccc(F)cc3)C(=S)N2CCCN2CCN(c3ccccc3)CC2)cc1` (centres unmarked) [Example 14], less than 0.5 µM. Take `CCOc1ccc(NC(=O)CC2C(=O)N(c3ccccc3)C(=O)N2CCC(C)C)cc1` (centres unmarked) [Example 15]: the EC50 was less than 5 µM. For `COc1ccc(NC(=O)CC2C(=O)N(c3ccc(F)cc3)C(=O)N2CCc2cccs2)cc1` (centres unmarked) [Example 16], the EC50 was less than 5 µM. As for `COc1ccc2[nH]cc(CCN3C(=S)N(c4ccccc4)C(=O)C3CC(=O)Nc3ccccc3)c2c1` (centres unmarked) [Example 17], the EC50 was less than 5 µM.

For `CCOc1cccc(NC(=O)CC2C(=O)N(c3ccccc3)C(=S)N2CCc2ccc(F)cc2)c1` (centres unmarked) [Example 18], the EC50 is less than 5 µM.

With `CCOc1ccc(NC(=O)CC2C(=O)N(c3cccc(C(F)(F)F)c3)C(=S)N2CCc2ccccc2F)cc1` (centres unmarked) [Example 19], the EC50 is less than 5 µM.

Take `O=C(CC1C(=O)N(c2ccc(Cl)cc2)C(=S)N1CCc1ccc(Cl)cc1)Nc1ccc(F)cc1` (centres unmarked) [Example 20]: the EC50 was less than 30 µM. In the case of `O=C(CC1C(=O)N(c2ccccc2)C(=S)N1CCc1ccccc1)Nc1ccc(Cl)cc1` (centres unmarked) [Example 22], the EC50 is less than 5 µM.

Consider `Cc1ccsc1CCN1C(=S)N(c2ccccc2)C(=O)C1CC(=O)Nc1ccc(F)cc1` (centres unmarked) [Example 23], for which the EC50 was less than 5 µM. `O=C(CC1C(=O)N(c2ccccc2)C(=S)N1CCc1ccc(Cl)cc1)Nc1ccc(Cl)cc1` (centres unmarked) [Example 24]: the EC50 is less than 5 µM. On to `COC(=O)c1ccc(NC(=O)CC2C(=O)N(c3ccccc3)C(=S)N2CCc2ccc(Cl)cc2)cc1` (centres unmarked) [Example 25], for which the EC50 was less than 5 µM.

Take `COc1ccc(NC(=O)CC2C(=O)N(c3ccc(C)cc3)C(=S)N2CCc2ccccc2)cc1` (centres unmarked) [Example 26]: the EC50 is less than 5 µM. Regarding `COCCCN1C(=S)N(c2ccc(F)cc2)C(=O)C1CC(=O)Nc1ccc(OC)cc1` (centres unmarked) [Example 27], the EC50 was less than 30 µM. As to `CCCOc1ccc(NC(=O)CC2C(=O)N(C3CCCCC3)C(=S)N2Cc2ccc(OC)cc2)cc1` (centres unmarked) [Example 29], the EC50 was less than 30 µM.

In the case of `CCCOc1ccc(NC(=O)CC2C(=O)N(c3ccc(F)cc3)C(=S)N2CCCN2CCN(CC)CC2)cc1` (centres unmarked) [Example 31], the EC50 is less than 30 µM.

For `COc1ccc(NC(=O)CC2C(=O)N(Cc3ccccc3)C(=S)N2CCc2ccc(Cl)cc2)cc1` (centres unmarked) [Example 32], the EC50 is less than 30 µM.
